Results on eleven substances are retold here after patent US10590422B2, “Anticancer therapeutic intervention” (PHYZAT BIOPHARMACEUTICALS, LDA., priority 2017, dated 2020).

d = 2'-deoxy (DNA); r = 2'-OH (RNA)

Series [1] relates to LAT1 mRNA. As to the kind of experiment: LAT1 gene expression (RT-qPCR) after LAT1 gene silencing in human colon cancer HTC-116 cells. Format: cell-based. As to conditions: treatment 6 h, 72 h, 0.17% Lipofectamine 2000 or 0.1% Injectin, FIG. 19A. As to the method:
(§1) SK-HEP-1, T24, HT-1080 and HCT-116 cell lines were maintained in a humidified atmosphere of 5% CO2 at 37° C. SK-HEP-1 cells were grown in RPMI-1640 (Sigma, St. Louis, Mo.) supplemented with 20% fetal bovine serum (FBS) (Gibco, UK), 100 U/mL penicillin G, 0.25 μg/mL amphotericin B, 100 μg/mL streptomycin (Gibco, UK), 25 mM sodium bicarbonate (Merck, Germany) and 25 mM N-2-hydroxyethylpiperazine-N′-2-ethanosulfonic acid (HEPES) (Sigma, St. Louis, Mo.). T24 and HT-1080 cells were grown, respectively, in Dulbecco's Modified Eagle's Medium (DMEM)—high glucose (Sigma, St. Louis, Mo.) and DMEM—low glucose (Sigma, St. Louis, Mo.), supplemented with 10% FBS (Gibco, UK), 100 U/mL penicillin G, 0.25 μg/mL amphotericin B, 100 μg/mL streptomycin (Gibco, UK), 25 mM sodium bicarbonate (Merck, Germany) and 25 mM HEPES (Sigma, St. Louis, Mo.). HCT-116 cells were grown in McCoy's 5A (Sigma, St. Louis, Mo.) supplemented with 10% FBS (Gibco, UK), 100 U/mL penicillin G, 0.25 μg/mL amphotericin B, 100 μg/mL streptomycin (Gibco, UK), 25 mM sodium bicarbonate (Merck, Germany) and 25 mM HEPES (Sigma, St. Louis, Mo.). For all cell lines the medium was changed every 2 days, and cells reached confluence 3-4 days after initial seeding. For subculturing, cells were dissociated with 0.25% trypsin-ethylenediaminetetraacetic acid (EDTA) (Sigma, St. Louis, Mo.), split 1:15 or 1:20 and subcultured in a 21-cm^2 growth area (Sarstedt, Germany).
(§2) Total RNA was isolated and purified using the SV Total RNA Isolation System (Promega, USA) according to manufacturer's instructions. RNA quality and concentration were verified in the NanoDrop ND1000 Spectrophotometer (Thermo Scientific, USA), and RNA integrity and genomic DNA contamination were evaluated by agarose gel electrophoresis. Total RNA (1 μg) was converted into cDNA using the Maxima Scientific First Strand cDNA Synthesis Kit for RT-qPCR (Thermo Scientific, USA), according to instructions. The following protocol was used: 1st step, 10 min at 25° C.; 2nd step, 15 min at 50° C.; 3rd step, 5 min at 85° C. cDNA was used for qPCR analysis using Maxima SYBR Green qPCR Master Mix (Thermo Scientific, USA) in the StepOnePlus instrument (Applied Biosystems, USA). QuantiTect Primer Assay for LAT1 and ASCT2 and for the endogenous control gene GAPDH (Quiagen, Germany) were used. The qPCR reaction was performed in 96-well PCR plates (Sarstedt, Germany) as follows: one cycle of 10 min at 95° C., followed by 40 PCR cycles at 95° C. 15 s and 60° C. 60 s. […] No template controls were always evaluated for each target gene. Quantification cycle (Cq) values were generated automatically by the StepOnePlus 2.3 Software and the ratio of the target gene was expressed in comparison to the endogenous control gene GAPDH.
(§3) Cells were plated in 24-well (Sarstedt, Germany) or 6-well plates (Sarstedt, Germany) or 96-well plates with black walls clear bottom (BD Biosciences, USA) and incubated 24 h under normal growth conditions. siRNAs against LAT1 and transfection agent were diluted at desired concentrations and mixed according to transfection agent manufacturer's instructions. The mixture was incubated 20 min at RT for siRNA-complex formation, after which it was added to the cells and incubated at 37° C., 5% CO2. After the incubation period, serum and antibiotic was restored and cells were further incubated at normal conditions for the desired time points until evaluation of LAT1 activity or LAT1 expression (immunoblotting and RT-qPCR).

Series [2] has as its system human colon cancer HTC-116 cells. Briefly: Cell proliferation assay (calcein-AM) in human colon cancer HTC-116 cells. Format: cell-based. As to conditions: for cell proliferation / proliferation: treatment 6 h; for cell proliferation: 72 h exposure, FIG. 14; for proliferation: at 72 h, 0.17% Lipofectamine 2000 or 0.1% Injectin, FIGS. 19B and 20B. The method, then:
as §1
Cell proliferation was measured using calcein-AM (Thermo Fisher Scientific, USA). The membrane permeant calcein-AM, a nonfluorescent dye, is taken up and converted by intracellular esterases to membrane impermeant calcein, which emits green fluorescence. Cells were plated in 96-well plates with black walls clear bottom (BD Biosciences, USA) and incubated 24 h under normal growth conditions. Cells were incubated with test items at 37° C., 5% C02. After the incubation period, serum and antibiotic was restored and cells were further incubated at normal conditions during 72 h. After treatment with test substances or vehicle, cells were washed twice with Hanks' medium and loaded with 2 μM calcein-AM in Hanks' medium, at 37° C. for 30 min. Fluorescence was measured at 485 nm excitation and 530 nm emission wavelengths in a microplate spectrofluorometer (Gemini EM, Molecular Devices). Nine consecutive fluorescence measurements are performed per well, to allow fluorescence readings in the whole area of the well, which was then considered for the calculation of mean fluorescence per well. To determine minimum staining for calcein (calceinmin), eight wells were treated with ethanol 30 min before calcein-AM addition. The percent cell number is calculated as [(calceinsample)/(calceincontrol)]×100.

Series [3] concerns LAT1 mRNA. As to the kind of experiment: LAT1 gene expression (RT-qPCR, relative to GAPDH) after LAT1 gene silencing in SK-HEP-1 cells. As to conditions: liver carcinoma SK-HEP-1 cells; 10 nM siRNA; treatment 6 h; at 24 h; Lipofectamine 2000; FIG. 4A. Format: cell-based, human. As to the method: as §1, §2, §3
Another series concerns LAT1. As to the kind of experiment: LAT1 activity: [^14C]-L-leucine uptake in SK-HEP-1 cells after LAT1 gene silencing. Format: cell-based, human. As to conditions: for inhibiting sodium-independent [^14C]-L-leucine transport: LAT1 siRNA, general statement, conditions not given; for [^14C]-L-leucine (0.25 μM) uptake at initial rate of uptake (1 min): liver carcinoma SK-HEP-1 cells, 10 nM siRNA, treatment 6 h, at 24 h and 48 h, 0.4% Lipofectamine 2000, FIGS. 5A and 5C. As to the method: Cells were plated in 24-well plates (Sarstedt, Germany) and grown until confluence was reached. On the day of the experiment, cell culture medium was aspirated and cells were preincubated for 15 min in Hanks' medium (NaCl 140 mM, KCl 5 mM, MgSO4.7H2O 0.8 mM, K2HPO4 0.33 mM, KH2PO4 0.44 mM, MgCl2.6H2O 1 mM, CaCl2) 0.025 mM, Tris-HCl 9.75 mM, pH 7.4). Uptake was initiated by addition of Hanks' medium with 0.25 μM [^14C]-L-leucine in the absence and in the presence of 3 mM unlabeled L-leucine. During preincubation and incubation cells were continuously shaken and maintained at 37° C. Uptake was terminated after 1 min by rapid removal of uptake solution by means of a vacuum pump connected to a Pasteur pipette, followed by a rapid wash with Hanks' medium. Subsequently, cells were solubilized in 0.1% vol/vol Triton X-100 (dissolved in 5 mM Tris-HCl, pH 7.4), and radioactivity was measured by liquid scintillation counting.
as §3

For another series, the system named is ASCT2 mRNA. As to the kind of experiment: ASCT2 gene expression (RT-qPCR) after ASCT2 gene silencing in human colon cancer HTC-116 cells. Format: cell-based. As to conditions: treatment 6 h, 72 h, 0.17% Lipofectamine 2000 or 0.1% Injectin, FIG. 20A. As to the method:
as §1, §2
as §3, with “ASCT2” for “LAT1”
For orientation: In qPCR the cycle at which signal appears reflects the starting amount.

With “58/389/390 (sense UCGCCACCUACCUGCUCAATT; antisense UUGAGCAGGUAGGUGGCGATT; siRNA; sugars by position and backbone not given here; further chemistry not fully specified)”, the “LAT1 mRNA relative abundance” value in the series on LAT1 mRNA [1] was “significantly decreased”. Besides, the “Effect on cell proliferation compared with SEQ ID NO: 58” value in series [2] (72 h, 0.1% Injectin, p<0.05) is “significantly greater”. For the same substance, the cell proliferation result in series [2] (0.1% Injectin) was “decreased”. The proliferation entry in series [2] is “significantly decreased”.

As to “61/395/396 (chain 1 UGAACUGCUACAGCGUGAATT; chain 2 UUCACUCUGUAGCAGUUCACG; siRNA; chain 1: sugars from the 5' end r19 d2, backbone not given here; chain 2: RNA, backbone not given here)”, in series [2] (0.1% Injectin), the cell proliferation entry is on record as “decreased”.

“61 (CGTGAACTGCTACAGCGTGAA; chemistry not given here) [compound 61]”: the “LAT1 mRNA relative abundance” value in the series with LAT1 mRNA [3] is recorded as “decreased”. Also, in the series on LAT1, the “inhibiting sodium-independent [^14C]-L-leucine transport” value (shortened to “inhibiting sodium-independent”) was “particularly effective” and the “[^14C]-L-leucine (0.25 μM) uptake at initial rate of uptake (1 min)” value (“[^14C]-L-leucine (0.25 μM) uptake” for short) is reported as “decreased”.

Take “6 (AACATCACGCTGCTCAACGGC; chemistry not given here) [compound 6]”: the “LAT1 mRNA relative abundance” value with LAT1 mRNA [3] is recorded as “decreased”. Moreover, the cell proliferation result in series [2] (0.1% Injectin) is on record as “decreased”. In addition, in the series with LAT1, the “inhibiting sodium-independent” value is “particularly effective” and the “[^14C]-L-leucine (0.25 μM) uptake” value is on record as “decreased”.

As for “22 (AACATTGTGCTGGCATTATAC; chemistry not given here) [compound 22]”, the “LAT1 mRNA relative abundance” value in the series on LAT1 mRNA [3] is reported as “decreased”. Further, in series [2] (0.1% Injectin), the cell proliferation result is listed as “decreased”. Also, in the series with LAT1, the “inhibiting sodium-independent” value is recorded as “particularly effective” and the “[^14C]-L-leucine (0.25 μM) uptake” value is given as “decreased”.

On to “267/399/400 (sense GGUCCUGUACCGUCCUCAATT; antisense UUGAGGACGGUACAGGACCTT; siRNA; sugars by position and backbone not given here; further chemistry not fully specified)”, for which, in series [2] (0.1% Injectin), the cell proliferation entry is recorded as “decreased”. Further, the proliferation entry in series [2] is “significantly decreased”. Besides, in the series with ASCT2 mRNA, the “ASCT2 mRNA relative abundance” value is “significantly decreased”.

Consider “278/407/408 (sense CCACGGUCGCCUCUGAGAATT; antisense UUCUCAGAGGCGACCGUGGCA; siRNA; sense: sugars from the 5' end r19 d2, backbone not given here; antisense: RNA, backbone not given here)”, for which the “Effect on cell proliferation compared with SEQ ID NO: 278/367/408” value in series [2] (72 h, 0.1% Injectin, p<0.05) is “significantly greater”. Moreover, in series [2] (0.1% Injectin), the cell proliferation entry was “decreased”.

In the case of “278/405/406 (sense CCACGGUCGCCUCUGAGAATT; antisense UUCUCAGAGGCGACCGUGGTT; siRNA; sugars by position and backbone not given here; further chemistry not fully specified)”, the “Effect on cell proliferation compared with SEQ ID NO: 278/367/408” value in series [2] (72 h, 0.1% Injectin, p<0.05) was “significantly greater”. Moreover, in series [2] (0.1% Injectin), the cell proliferation entry is recorded as “decreased”. In addition, the proliferation result in series [2] is “significantly decreased”. The “ASCT2 mRNA relative abundance” value with ASCT2 mRNA is on record as “significantly decreased”.

For the substance “58/389/412 (sense UCGCCACCUACCUGCUCAATT; antisense UUGAGCAGGUAGGUGGCGAUG; siRNA; sense: sugars from the 5' end r19 d2, backbone not given here; antisense: RNA, backbone not given here)”, the “Effect on cell proliferation compared with SEQ ID NO: 58” value in series [2] (72 h, 0.1% Injectin, p<0.05) was “significantly greater”. Also, in series [2] (0.1% Injectin), the cell proliferation result is “decreased”.

On to “61/393/394 (chain 1 UGAACUGCUACAGCGUGAATT; chain 2 UUCACUCUGUAGCAGUUCATT; siRNA; sugars by position and backbone not given here; further chemistry not fully specified)”, for which the “LAT1 mRNA relative abundance” value in the series on LAT1 mRNA [1] is “significantly decreased”. Moreover, the cell proliferation result in series [2] (0.1% Injectin) is reported as “decreased”. In addition, the proliferation result in series [2] is listed as “significantly decreased”.

As to “267/401/402 (sense GGUCCUGUACCGUCCUCAATT; antisense UUGAGGACGGUACAGGACCGG; siRNA; sense: sugars from the 5' end r19 d2, backbone not given here; antisense: RNA, backbone not given here)”, the “Effect on cell proliferation compared with SEQ ID NO: 267/356/402” value in series [2] (72 h, 0.1% Injectin, p<0.05) is recorded as “significantly greater”. The cell proliferation result in series [2] (0.1% Injectin) is “decreased”.
